Activity calls are given as the source filed them. No cut-off for these calls is given here.
How the values were obtained:
PC-12 [1] = assay: Cytoprotective activity in rat PC12 cells assessed as protection against t-BHP-induced cell damage at 0.4 uM; assay type: functional
Rattus norvegicus = species: Rattus norvegicus; assay: Cytoprotective activity against H2O2-induced damage in rat RINm cells; assay type: functional, cell-based
[2] = Antitumor activity against mouse SW1 cells; assay type: functional, cell-based
PC-12 [3] = assay: Cytoprotective activity against t-BPH-induced cell damage in rat PC12 cells assessed as cell viability at 1.6 uM; assay type: functional, cell-based
PC-12 [4] = assay: Neuroprotective activity in t-BHP-induced damage in rat PC12 cells assessed as induction of Hsp70 expression by Western blotting; assay type: functional, cell-based
PC-12 [5] = assay: Cytoprotective activity against t-BPH-induced cell damage in rat PC12 cells assessed as cell viability; assay type: functional, cell-based
PC-12 [6] = assay: Cytoprotective activity against t-BPH-induced cell damage in rat PC12 cells assessed as cell viability at 0.8 uM; assay type: functional, cell-based
PC-12 [7] = assay: Cytoprotective activity against t-BPH-induced cell damage in rat PC12 cells assessed as cell viability at 0.1 uM; assay type: functional; conditions: read-out: Activity
LNCaP = assay: Antitumor activity against human LNCAP cells; assay type: functional, cell-based

For `CC1=C(OC(=O)CCCCC2CCSS2)C(=O)C=C2C1=CC=C1[C@@]2(C)CC[C@@]2(C)[C@@H]3C[C@](C)(C(=O)O)CC[C@]3(C)CC[C@]12C` (some centres undefined), the Activity (PC-12 [1]) was “inactive” and the Activity (Rattus norvegicus) was “Active”.
With `COC(=O)[C@]1(C)CC[C@]2(C)CC[C@]3(C)C4=CC=C5C(=CC(=O)C(O)=C5C)[C@]4(C)CC[C@@]3(C)[C@@H]2C1` [PRISTIMERIN] the EC50 [2] was under 100 nM.
In the case of `CCCOC(=O)[C@]1(C)CC[C@]2(C)CC[C@]3(C)C4=CC=C5C(=CC(=O)C(O)=C5C)[C@]4(C)CC[C@@]3(C)[C@@H]2C1`, the Activity (PC-12 [3]) is reported as “Active”.
For `CC1=C(OC(=O)c2nc(C)c(C)nc2C)C(=O)C=C2C1=CC=C1[C@@]2(C)CC[C@@]2(C)[C@@H]3C[C@](C)(C(=O)O)CC[C@]3(C)CC[C@]12C`, the Activity (PC-12 [1]) was 76% and the Activity (PC-12 [4]) was “Dose-dependent effect”.
For `CC1=C(O)/C(=N/O)C=C2C1=CC=C1[C@@]2(C)CC[C@@]2(C)[C@@H]3C[C@](C)(C(=O)O)CC[C@]3(C)CC[C@]12C`, the Activity (PC-12 [3]) was “Active”.
Work on `CC1=C(O)C(=O)C=C2C1=CC=C1[C@@]2(C)CC[C@@]2(C)[C@@H]3C[C@](C)(C(=O)OCc4ccccc4)CC[C@]3(C)CC[C@]12C` yielded an EC50 [2] of 300 nM.
In the case of `CC1=C(O)C(=O)C=C2C1=CC=C1[C@@]2(C)CC[C@@]2(C)[C@@H]3C[C@](C)(C(=O)O)CC[C@]3(C)CC[C@]12C` [CELASTROL], the IC50 (PC-12 [5]) is reported as 3150 nM, the Activity (PC-12 [3]) is reported as “Active” and the Activity (PC-12 [6]) is reported as “inactive”. The viability at 0.1 µM (PC-12 [7]) was 65% and the IC50 (LNCaP) was 2500 nM.
In the case of `CC1=C(O)C(=O)C=C2C1=CC=C1[C@@]2(C)CC[C@@]2(C)[C@@H]3C[C@](C)(C(=O)N4CCN(C)CC4)CC[C@]3(C)CC[C@]12C`, the Activity (PC-12 [3]) is reported as “Dose-dependent effect”.
